{
  "source": "patent US20110053892A1",
  "about": "“Imidazo[4,5-d]Pyridazine Compounds For Treating Viral Infections” (priority 2009, published 2011)",
  "data": [
    {"tested_on": "HCV Genotype 1B replicon cells", "type": "cell-based", "conditions": "Table 3; cytotoxicity, cell titer glo", "excerpt": "The genotype 1a replicon contains several adaptive mutations (NS4B Q31H, NS5A K68R, NS5A S232I), the luciferase gene and encodes for neomycin resistance. The genotype 1b replicon, also referred to as the ET replicon, is stably transfected with RNA transcripts harboring a I389luc-ubi-neo/NS3-3′/ET replicon with firefly luciferase-ubiquitin-neomycin phosphotransferase fusion protein and EMCV-IRES driven NS3-5B polyprotein containing the cell culture adaptive mutations (E1202G; T1280I; K1846T) See, Kreiger, et al., Journal of Virology 75:4614-4624 (2001). Both cell lines were grown in DMEM, supplemented with 10% fetal calf serum, 2 mM Glutamine, Penicillin (100 IU/mL)/Streptomycin (100 μg/mL), 1× nonessential amino acids, and 250 μg/mL G418 (“Geneticin”). They were all available through Life Technologies (Bethesda, Md.). The cells were plated at 0.5×10^4 cells/well in 384 well plates containing compounds. The final concentration of compounds ranged between 0.1 nM to 50 μM and the final DMSO concentration of 0.5%.\nLuciferase activity was measured 48 hours later by adding a Steady glo (Promega, Madison, Wis.). Percent inhibition of replication data was plotted relative to no compound control. Under the same condition, cytotoxicity of the compounds was determined using cell titer glo (Promega, Madison, Wis.). EC50 values were determined from a 10 point dose response curve using 2-4 fold serial dilutions for each compound, which spans a concentration range of at least a 1000 fold. Replicon EC50 values, the concentration of compound required to inhibit 50% of the assay response, were calculated by curve fitting data to the Hill equation, using a non-linear least-squares curve-fitting program. The software tested the data for quality and rejected compounds with high and low activity before fitting the equation below.", "units": {"CC50": "µM"}, "values": [
      {"smiles": "CCCOC(=O)C(c1cc(-c2ccc(C3CC3)cc2C(F)(F)F)no1)n1cc2nc(-c3cccc(F)c3F)nc-2cn1", "note": "(stereo not shown) [Compound 184, Propyl {3-[4-cyclopropyl-2-(trifluoromethyl)phenyl]-5-isoxazolyl}[2-(2,3-difluorophenyl)-5H-imidazo[4,5-d]pyridazin-5-yl]acetate]", "CC50": 25},
      {"smiles": "O=C(OCCCO)C(c1cc(-c2ccc(C3CC3)cc2C(F)(F)F)no1)n1cc2nc(-c3cccc(F)c3F)nc-2cn1", "note": "(stereo not shown) [Compound 182, 3-Hydroxypropyl {3-[4-cyclopropyl-2-(trifluoromethyl)phenyl]-5-isoxazolyl}[2-(2,3-difluorophenyl)-5H-imidazo[4,5-d]pyridazin-5-yl]acetate]", "CC50": "> 50"},
      {"smiles": "COC(=O)C(c1cc(-c2ccc(C3CC3)cc2C(F)(F)F)no1)n1cc2nc(-c3cccc(F)c3F)nc-2cn1", "note": "(stereo not shown) [Compound 178, Methyl {3-[4-cyclopropyl-2-(trifluoromethyl)phenyl]-5-isoxazolyl}[2-(2,3-difluorophenyl)-5H-imidazo[4,5-d]pyridazin-5-yl]acetate]", "CC50": 25},
      {"smiles": "O=C(OCCOCCO)C(c1cc(-c2ccc(C3CC3)cc2C(F)(F)F)no1)n1cc2nc(-c3cccc(F)c3F)nc-2cn1", "note": "(stereo not shown) [Compound 179, 2-[(2-hydroxyethyl)oxy]ethyl {3-[4-cyclopropyl-2-(trifluoromethyl)phenyl]-5-isoxazolyl}[2-(2,3-difluorophenyl)-5H-imidazo[4,5-d]pyridazin-5-yl]acetate]", "CC50": 50}
    ]}
  ]
}
